Assay results reported in patent US20190227066A1, “COMPOSITIONS AND METHODS FOR DETECTING CANCER CELLS IN A TISSUE SAMPLE” (ISI Life Sciences, Inc., priority 2016, published 2019).

Tested on: SDOV3 cells (an ovarian cancer cell line)
Assay: Detection of ovarian cancer cells: uptake and intracellular deacylation, imaged by fluorescence microscopy
Type: cell-based
Conditions: 50 micromolar, folate-free medium (no FBS), washed with HBSS, 20× immersion objective
Method: Compound 24 and comparative compound A were evaluated for their ability to be absorbed by cancer cells and then, in the case of compound 24, deacylated by intracellular esterases so as to regenerate a fluorescent structure. Specifically, approximately 500,000 SDOV3 cells (an ovarian cancer cell line) were seeded into separate 35 mm culture dishes containing a folate-free growth medium (RPMI+10% FBS). The next day, the medium was replaced with a folate-free medium (no FBS). In one culture dish, the medium was supplemented with 25 micromolar of compound 24; and, in another culture dish, the medium was supplemented with 50 micromolar of comparative compound A. After incubation, the cells were washed with HBSS (Hank's balanced salt solution) to remove unbound compound. The cells were then imaged with a 20× immersion objective on a standard upright fluorescent microscope. […] FIG. 1 illustrates a picture showing the fluorescence generated. Note that only the cancer cells evidenced fluorescence and that the solution remained non-fluorescent. […] This evidences that that composition was not suitable for use in the methods described herein.

Q: `Nc1nc2ncc(CNc3ccc(C(=O)NC(CCC(=O)NCCCCCNC(=O)c4cccc(-c5c6ccc(=O)cc-6oc6cc(O)ccc56)c4C(=O)O)C(=O)O)cc3)nc2c(=O)[nH]1` (stereo not shown) [comparative compound A] was tested. Which “fluorescent signal of the cells” value did it give?
A: Its value is “burst of fluorescence but immediately the fluorescence was bleached”.
